Experimental data reported in patent publication US20250154154A1 (Relay Binney Street, 2nd Floor, priority 2020, published 2025).
pIC50: −log10 of the molar value.

Tests used:
SRC = SRC (Homo sapiens, UniProt P12931); assay: SRC Biochemical Assay Protocol (microfluidic mobility shift assay, FLPeptide4 substrate)
Procedure, shortened: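 Recombinant SRC (0.26 nM) preincubated 30 min at RT with compound (0.0017–100 μM) and 1.5 μM FLPeptide4, then 50 μM ATP added; 90 min reaction in HEPES pH 7.4, 10 mM MgCl2, 1% DMSO, EDTA-quenched. Phosphopeptide quantified by microfluidic mobility shift; IC50 from 4-parameter logistic fit.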

[1] = system: phospho-S6RP (Ser 235/236) in RBE cells; assay: Cellular Proliferation Protocol (cellular phospho-S6RP HTRF), RBE cells; assay type: cell-based; details: 6 hours treatment, RBE or SNU-1079 cells, cell line not given
Procedure, shortened: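 RBE cells, 2000/well, seeded 24 h before 6 h compound treatment at 37° C. Lysates were probed with a Eu-cryptate/d2 HTRF antibody sandwich for phospho-S6RP (Ser 235/236), incubated overnight at room temperature. Signal normalised to DMSO control and IC50 fitted to a 4-parameter curve.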

RBE cells = assay: Cell Viability Protocol (CellTiterGlo), RBE cells; assay type: cell-based; details: RBE or SNU-1079 cells, 72 or 120 hour, cell line and time not given
Procedure, shortened: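 RBE cells plated at 1200/well in RPMI 1640 with 10% FBS, incubated 24 h, then dosed with compound from DMSO stocks and incubated 72 or 120 h at 37° C. CellTiterGlo luminescence normalised to DMSO control; IC50 from 4-parameter fit.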

Chain of SRC (P12931 whole entry, species assumed): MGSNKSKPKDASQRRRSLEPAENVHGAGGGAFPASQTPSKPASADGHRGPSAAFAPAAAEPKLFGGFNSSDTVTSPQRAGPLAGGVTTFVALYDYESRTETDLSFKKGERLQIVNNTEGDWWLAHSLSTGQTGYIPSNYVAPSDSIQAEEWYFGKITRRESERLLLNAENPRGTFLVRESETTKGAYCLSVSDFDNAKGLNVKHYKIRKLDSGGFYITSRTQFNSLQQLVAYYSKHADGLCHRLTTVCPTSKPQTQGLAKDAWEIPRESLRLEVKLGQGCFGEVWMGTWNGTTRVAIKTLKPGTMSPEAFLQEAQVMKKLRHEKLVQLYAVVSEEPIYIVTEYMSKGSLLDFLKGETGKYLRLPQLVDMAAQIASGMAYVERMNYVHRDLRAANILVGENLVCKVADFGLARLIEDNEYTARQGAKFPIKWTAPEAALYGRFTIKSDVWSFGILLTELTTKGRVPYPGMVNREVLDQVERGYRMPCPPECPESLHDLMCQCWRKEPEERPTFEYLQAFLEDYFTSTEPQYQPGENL

C=CC(=O)N1CCC(N2CC(C#Cc3c(-c4cccc5c4OCO5)c4c(N)ncnc4n3CC)C2)CC1 [II-119]
pIC50 (SRC): ≥ 8.00
pIC50 [1]: 6.00 to 8.00
pIC50 (RBE cells): 6.00 to 8.00

C=CC(=O)N1CC[C@@H](N2CC(C#Cc3c(-c4ccc(Cl)c(OC)n4)c4c(N)ncnc4n3C)C2)[C@@H](F)C1 [II-320]
pIC50 (SRC): 6.00 to 8.00
pIC50 [1]: 6.00 to 8.00
pIC50 (RBE cells): 6.00 to 8.00

C=CC(=O)N1C[C@@H]2[C@@H](C#Cc3c(-c4ccc(Oc5cnccn5)cc4)c4c(N)ncnc4n3C)[C@@H]2C1 [II-22]
pIC50 (SRC): 6.00 to 8.00
pIC50 [1]: 6.00 to 8.00
pIC50 (RBE cells): 6.00 to 8.00

Cn1c(C#CC2CCCN(C(=O)/C=C/CN3CC(F)C3)CC2)c(-c2ccc(Oc3ccccc3)cc2)c2c(N)ncnc21 (stereo not drawn) [II-184, (E)-1-(4-((4-amino-7-methyl-5-(4-phenoxyphenyl)-7H-pyrrolo[2,3-d]pyrimidin-6-yl)ethynyl)azepan-1-yl)-4-(3-fluoroazetidin-1-yl)but-2-en-1-one]
pIC50 (SRC): 6.00 to 8.00
pIC50 ([1]; 6 h): 5.00 to 6.00
pIC50 (RBE cells): 5.00 to 6.00

CCN(CC)C/C=C/C(=O)N1C[C@@H]2[C@@H](C#Cc3c(-c4ccc(Oc5ccccc5)cc4)c4c(N)ncnc4n3C)[C@@H]2C1 [II-223, (E)-1-((1R,5S,6s)-6-((4-amino-7-methyl-5-(4-phenoxyphenyl)-7H-pyrrolo[2,3-d]pyrimidin-6-yl)ethynyl)-3-azabicyclo[3.1.0]hexan-3-yl)-4-(diethylamino)but-2-en-1-one]
pIC50 (SRC): 6.00 to 8.00
pIC50 ([1]; 6 h): 6.00 to 8.00
pIC50 (RBE cells): 6.00 to 8.00

C=CC(=O)N1CC[C@@H](N2CC(C#Cc3c(-c4ccc(Cl)c(C)c4)c4c(N)ncnc4n3C)C2)[C@@H](O)C1 [II-64]
pIC50 (SRC): 6.00 to 8.00
pIC50 [1]: 6.00 to 8.00
pIC50 (RBE cells): 6.00 to 8.00

C=CC(=O)N1CC[C@@H](N2CC(C#Cc3c(-c4ccc(Cl)cn4)c4c(N)ncnc4n3C)C2)[C@@H](O)C1 [II-321]
pIC50 (SRC): 6.00 to 8.00
pIC50 [1]: 6.00 to 8.00
pIC50 (RBE cells): 6.00 to 8.00

C=CC(=O)N1CCC(N2CC(C#Cc3c(-c4ccc(Oc5ccccc5)c(OC)c4)c4c(N)ncnc4n3C)C2)C[C@H]1CO (stereo partly drawn) [II-248, 1-((2S)-4-(3-((4-amino-5-(3-methoxy-4-phenoxyphenyl)-7-methyl-7H-pyrrolo[2,3-d]pyrimidin-6-yl)ethynyl)azetidin-1-yl)-2-(hydroxymethyl)piperidin-1-yl)prop-2-en-1-one]
pIC50 (SRC): ≥ 8.00
pIC50 ([1]; 6 h): 6.00 to 8.00
pIC50 (RBE cells): 6.00 to 8.00

C=CC(=O)N1C[C@@H]2[C@@H](C#Cc3c(-c4ccc(Oc5cccc(C)n5)cc4)c4c(N)ncnc4n3C)[C@@H]2C1 [II-206, 1-[(1R,5S,6S)-6-[2-(4-amino-7-methyl-5-[4-[(6-methylpyridin-2-yl)oxy]phenyl]-7H-pyrrolo[2,3-d]pyrimidin-6-yl)ethynyl]-3-azabicyclo[3.1.0]hexan-3-yl]prop-2-en-1-one]
pIC50 (SRC): 6.00 to 8.00
pIC50 ([1]; 6 h): ≥ 8.00
pIC50 (RBE cells): ≥ 8.00

C=CC(=O)N1CCC(N2CC(C#Cc3c(-c4ccc(Cl)c(OC)n4)c4c(N)ncnc4n3C(C)C)C2)CC1 [II-327]
pIC50 (SRC): ≥ 8.00
pIC50 [1]: 6.00 to 8.00
pIC50 (RBE cells): 6.00 to 8.00

C=CC(=O)N1CC[C@@H](N2CC(C#Cc3c(-c4ccc(Oc5ccccc5)c(OC)n4)c4c(N)ncnc4n3C)C2)[C@@H](O)C1 [II-316]
pIC50 (SRC): 6.00 to 8.00
pIC50 [1]: ≥ 8.00
pIC50 (RBE cells): ≥ 8.00

C=CC(=O)N1C[C@@H]2[C@@H](C#Cc3c(-c4ccc(Oc5ccccn5)cc4)c4c(N)ncnc4n3C3CCOC3)[C@@H]2C1 (mixture of isomers) [II-23]
pIC50 (SRC): 6.00 to 8.00
pIC50 [1]: ≥ 8.00
pIC50 (RBE cells): ≥ 8.00

C=CC(=O)N1CC[C@@H](N2CC(C#Cc3c(-c4ccc(OC(F)(F)F)cc4)c4c(N)ncnc4n3C)C2)[C@@H](O)C1 [II-73]
pIC50 (SRC): 6.00 to 8.00
pIC50 [1]: 6.00 to 8.00
pIC50 (RBE cells): 6.00 to 8.00

C=CC(=O)N1CCC(N2CC(C#Cc3c(-c4ccc(Oc5ccccc5)cc4)c4c(N)ncnc4n3[C@H](C)CO)C2)CC1 [II-168, (R)-1-(4-(3-((4-amino-7-(1-hydroxypropan-2-yl)-5-(4-phenoxyphenyl)-7H-pyrrolo[2,3-d]pyrimidin-6-yl)ethynyl)azetidin-1-yl)piperidin-1-yl)prop-2-en-1-one]
pIC50 (SRC): 6.00 to 8.00
pIC50 ([1]; 6 h): ≥ 8.00
pIC50 (RBE cells): ≥ 8.00

CC(C)n1c(C#CC2CCN(C3CN(C(=O)/C=C/CN(C)C)C3)CC2)c(-c2ccc(Oc3ccccc3)cc2)c2c(N)ncnc21 [Example I-54]
pIC50 (SRC): ≥ 8.00
pIC50 ([1]; 6 h): ≥ 8.00
pIC50 (RBE cells): 6.00 to 8.00

C=CC(=O)N1CCC(C#Cc2c(-c3ccc(Oc4ccccc4)cc3)c3c(N)ncnc3n2C(C)C(N)=O)CC1 (stereo not drawn) [Example I-33]
pIC50 (SRC): 6.00 to 8.00
pIC50 ([1]; 6 h): 6.00 to 8.00
pIC50 (RBE cells): 6.00 to 8.00

C=CC(=O)N1CCC(N2CC(F)(C#Cc3c(-c4ccc(Oc5cccc(C)n5)cc4)c4c(N)ncnc4n3C)C2)C[C@H]1CO (stereo partly drawn) [II-204, 1-((2S)-4-(3-((4-amino-7-methyl-5-(4-((6-methylpyridin-2-yl)oxy)phenyl)-7H-pyrrolo[2,3-d]pyrimidin-6-yl)ethynyl)-3-fluoroazetidin-1-yl)-2-(hydroxymethyl)piperidin-1-yl)prop-2-en-1-one]
pIC50 (SRC): 6.00 to 8.00
pIC50 ([1]; 6 h): 6.00 to 8.00
pIC50 (RBE cells): 6.00 to 8.00

C=CC(=O)N1CC[C@H](N2CC(C#Cc3c(-c4ccccc4OC)c4c(N)ncnc4n3C)C2)[C@H](O)C1 [II-274]
pIC50 (SRC): 6.00 to 8.00
pIC50 ([1]; 6 h): 5.00 to 6.00
pIC50 (RBE cells): 5.00 to 6.00

C=CC(=O)N1CC[C@@H](N2CC(C#Cc3c(-c4ccc(OC5CC5)cc4)c4c(N)ncnc4n3C)C2)[C@@H](O)C1 [II-70]
pIC50 (SRC): 5.00 to 6.00
pIC50 [1]: 6.00 to 8.00
pIC50 (RBE cells): 6.00 to 8.00

C=CC(=O)NCC(=O)N1C[C@@H]2[C@@H](C#Cc3c(-c4ccc(Oc5ccccc5)cc4)c4c(N)ncnc4n3C)[C@@H]2C1 [II-211, N-[2-[(1R,5S,6S)-6-[2-[4-amino-7-methyl-5-(4-phenoxyphenyl)-7H-pyrrolo[2,3-d]pyrimidin-6-yl]ethynyl]-3-azabicyclo[3.1.0]hexan-3-yl]-2-oxoethyl]prop-2-enamide]
pIC50 (SRC): ≥ 8.00
pIC50 ([1]; 6 h): ≥ 8.00
pIC50 (RBE cells): ≥ 8.00

C=CC(=O)N1CCC(N2CC(C#Cc3c(-c4ccc(Cl)c(OC)c4)c4c(N)ncnc4n3C(C)C)C2)CC1 [II-86]
pIC50 (SRC): ≥ 8.00
pIC50 [1]: ≥ 8.00
pIC50 (RBE cells): 6.00 to 8.00

COCCn1c(C#CC2CN(C(=O)/C=C/CN(C)C)C2)c(-c2ccc(Oc3ccccc3)cc2)c2c(N)ncnc21 [II-191, (E)-1-(3-((4-amino-7-(2-methoxyethyl)-5-(4-phenoxyphenyl)-7H-pyrrolo[2,3-d]pyrimidin-6-yl)ethynyl)azetidin-1-yl)-4-(dimethylamino) but-2-en-1-one]
pIC50 (SRC): 6.00 to 8.00
pIC50 ([1]; 6 h): 6.00 to 8.00
pIC50 (RBE cells): 6.00 to 8.00

C=CC(=O)N1CCC(C#Cc2c(-c3ccc(Oc4ccccc4)cc3)c3c(N)ncnc3n2C2CCNC2=O)CC1 (stereo not drawn) [Example I-61]
pIC50 (SRC): 6.00 to 8.00
pIC50 ([1]; 6 h): 5.00 to 6.00
pIC50 (RBE cells): 5.00 to 6.00

C=CC(=O)N1CC[C@@H](N2CC(C#Cc3c(-c4ccc(OC5CC5)c(OC)c4)c4c(N)ncnc4n3C)C2)[C@@H](O)C1 [II-68]
pIC50 (SRC): 5.00 to 6.00
pIC50 [1]: 6.00 to 8.00
pIC50 (RBE cells): 5.00 to 6.00

C=CC(=O)N1C[C@@H]2[C@@H](C#Cc3c(-c4ccccc4OC)c4c(N)ncnc4n3C)[C@@H]2C1 [II-269]
pIC50 (SRC): 6.00 to 8.00
pIC50 ([1]; 6 h): 6.00 to 8.00
pIC50 (RBE cells): 6.00 to 8.00

C=CC(=O)N1CCC(N2CC(C#Cc3c(-c4ccc(Oc5cccc(C)n5)cc4)c4c(N)ncnc4n3C)C2)C(F)C1 (stereo not drawn) [II-216, 1-(4-(3-((4-amino-7-methyl-5-(4-(6-methylpyridin-2-yloxy)phenyl)-7H-pyrrolo[2,3-d]pyrimidin-6-yl)ethynyl)azetidin-1-yl)-3-fluoropiperidin-1-yl)prop-2-en-1-one]
pIC50 (SRC): 6.00 to 8.00
pIC50 ([1]; 6 h): 6.00 to 8.00
pIC50 (RBE cells): 6.00 to 8.00

C=CC(=O)N1CC2C(C#Cc3c(-c4ccc(Cl)c5c4OC(F)(F)O5)c4c(N)ncnc4n3C)C2C1 (stereo not drawn) [II-128]
pIC50 (SRC): 5.00 to 6.00
pIC50 [1]: 5.00 to 6.00
pIC50 (RBE cells): 6.00 to 8.00

C=CC(=O)N1CCC(N2CC(C#Cc3c(-c4ccc(Oc5ccccc5)c(Cl)n4)c4c(N)ncnc4n3C)C2)CC1 [II-314]
pIC50 (SRC): < 5.00
pIC50 [1]: 6.00 to 8.00
pIC50 (RBE cells): 6.00 to 8.00

Cn1c(C#CC2CC3(C2)CN(C(=O)/C=C/CN2CC(O)C2)C3)c(-c2ccc(Oc3ccccc3)cc2)c2c(N)ncnc21 [II-174, (E)-1-(6-((4-amino-7-methyl-5-(4-phenoxyphenyl)-7H-pyrrolo[2,3-d]pyrimidin-6-yl)ethynyl)-2-azaspiro[3.3]heptan-2-yl)-4-(3-hydroxyazetidin-1-yl)but-2-en-1-one]
pIC50 (SRC): ≥ 8.00
pIC50 ([1]; 6 h): 6.00 to 8.00
pIC50 (RBE cells): 6.00 to 8.00

C=CC(=O)N1CCC(C#Cc2c(-c3ccc(Oc4ccccc4)cc3)c3c(N)ncnc3n2C)CC1 [Example I-4]
pIC50 (SRC): 6.00 to 8.00
pIC50 ([1]; 6 h): ≥ 8.00
pIC50 (RBE cells): 6.00 to 8.00

Cc1cccc(Oc2ccc(-c3c(C#C[C@@H]4[C@H]5CN(C(=O)/C=C/CN(C)C)C[C@@H]45)n(C4CCOC4)c4ncnc(N)c34)cc2)n1 (mixture of isomers) [II-28]
pIC50 (SRC): 6.00 to 8.00
pIC50 [1]: 6.00 to 8.00
pIC50 (RBE cells): 6.00 to 8.00

C=CC(=O)N1CC[C@@H](N2CC(C#Cc3c(-c4ccc(C(F)(F)F)cc4)c4c(N)ncnc4n3C)C2)[C@@H](O)C1 [II-72]
pIC50 (SRC): 6.00 to 8.00
pIC50 [1]: 6.00 to 8.00
pIC50 (RBE cells): 6.00 to 8.00

C=CC(=O)N1CC2C(C#Cc3c(-c4ccc(Cl)c5c4OCO5)c4c(N)ncnc4n3C)C2C1 (stereo not drawn) [II-127]
pIC50 (SRC): ≥ 8.00
pIC50 [1]: 6.00 to 8.00
pIC50 (RBE cells): 6.00 to 8.00
